The text below walks through data of patent publication US7214673B2, “Piperazine substituted aryl benzodiazepines and their use as dopamine receptor antagonists for the treatment of psychotic disorders” (Eli Lilly and Company, priority 2002, dated 2007).

SMILES strings stand for the structures. Counter-ions that a name gives are not always drawn.

One data set deals with T1, Dopamine D2 receptor (Homo sapiens, UniProt P14416).
T1 construct: purchased Receptor Biology (now owned by NEN) RBHD2CM
Put plainly: Dopamine D2 receptor binding assay ([125I]iodospiperone). The note with it: [125I]iodospiperone 0.1 nM, D2 receptor membranes, 2 hours at room temperature; read-out: Relative D2 Receptor Binding Affinity Ki. Here is the method:
Serotonin 5-HT6 and Dopamine D2 Binding Assay Protocol
The assay buffers used are 50 mM Tris-HCl pH 7.4, 120 mM NaCl, 5 mM KCl, 5 mM MgCl2, 1 mM EDTA for the Dopamine D2s receptor binding assay. […] The membranes used are from Receptor Biology (now owned by NEN), Cat #RBHD2CM for the D2 receptor.
Compounds are obtained as 10 mM stocks in 100% DMSO. They are diluted to 1 mM in 100% DMSO by adding 180 μL DMSO to 20 μL of stock in 96 well plates using a multidrop. […] This is done using a TECAN robot.
The radioligand is diluted in assay buffer to provide 0.1 nM for the D2 assay. Each vial of membranes is diluted up to 92 mL in assay buffer. The final assay volume is 250 μL consisting of 210 μl of diluted membranes, 20 μL of compound or 10% DMSO for total binding, and 20 μL of diluted radioligand. The compounds are transferred from drug dilution plates into coming 96 well assay plates using a 96 well Multimek pipettor. Radioligand and membranes are added to assay plates using multidrop pipettors. Non-specific binding is determined in wells containing a final concentration of 5 μM haloperidol. The final drug concentration range in half logs is from 10 μM down to 0.1 nM.
After addition of drug, membrane, and ligand, the plates are incubated for 2 hours at room temperature. During this time 96 well Millipore filter plates (MAFBNOB50) are soaked for a least 30 minutes with 200 μL per well of 0.5% polyethyleneimine.
The 0.5% PEI is removed from filterplate wells using a TiterTek MAP aspirator and 200 μL of the incubation mixture is transferred from the incubation plate to the filterplate after mixing. This transfer is done using the 96 tip Mutimek pipettor. After transfer to the filterplate filterplates are extracted and ished twice with 220 μL per well of cold buffer on the MAP aspirator. The peel away bottoms are removed from the filterplates and 60 μL per well of microscint 20 scintillation fluid is added per well using a multidrop. Plates are placed into suitable holders and are left at room temperature for 3 hours and are counted for ^3H in either a Wallac Microbeta counter or on a Packard Topcount.

T1 sequence (P14416 1-414 isoform P14416-2): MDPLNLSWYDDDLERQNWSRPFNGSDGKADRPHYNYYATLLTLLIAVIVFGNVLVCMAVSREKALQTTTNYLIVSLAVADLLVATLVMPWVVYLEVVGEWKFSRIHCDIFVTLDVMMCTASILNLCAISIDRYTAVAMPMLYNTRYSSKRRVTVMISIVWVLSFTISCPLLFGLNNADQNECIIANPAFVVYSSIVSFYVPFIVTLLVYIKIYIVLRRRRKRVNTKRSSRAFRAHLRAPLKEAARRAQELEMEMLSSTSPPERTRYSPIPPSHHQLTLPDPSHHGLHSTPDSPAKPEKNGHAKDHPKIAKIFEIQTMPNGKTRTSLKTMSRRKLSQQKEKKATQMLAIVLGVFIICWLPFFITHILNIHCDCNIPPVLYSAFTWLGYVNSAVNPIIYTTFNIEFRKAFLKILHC

With `Cc1cc2c(s1)Nc1ccccc1N=C2N1CCN[C@@H](CCc2ccccc2)C1` [Example 59, 2-Methyl-10-(S)-(3-phenethyl-piperazin-1-yl)-4H-3-thia-4,9-diazabenzo[f]azulene], the melting point (usually the temperature of the solid-liquid transition) is 75 to 84 °C. The inhibition constant (Ki) (in general, a measure of affinity in units of concentration, obtained from inhibition or displacement) at Dopamine D2 receptor is 10 to 100 nM. Compound `Cc1cc2c(s1)Nc1ccccc1N=C2N1CCN[C@@H](Cc2ccccc2)C1` [Example 61] came in with a melting point of 169 to 170 °C. Besides, the Ki at Dopamine D2 receptor is less than 10 nM. The like results for `Cc1ccc(C[C@H]2CN(C3=Nc4ccccc4Nc4sc(C)cc43)CCN2)cc1` [Example 69] were, in that order, 92 to 101 °C and 10 to 100 nM. Taken in the same sequence, the figures for `Cc1cccc(C[C@H]2CN(C3=Nc4ccccc4Nc4sc(C)cc43)CCN2)c1` [Example 70] were 80 to 97 °C and less than 10 nM. In turn, `Cc1cc2c(s1)Nc1ccccc1N=C2N1CCN[C@@H](Cc2ccccc2F)C1` [Example 71] came in with a melting point of 84 to 102 °C. For the same compound, the inhibitory constant (Ki) on Dopamine D2 receptor is less than 10 nM. Consider `Cc1cc2c(s1)Nc1ccccc1N=C2N1CCN[C@@H](Cc2cccc(F)c2)C1` [Example 72], for which the melting point was in the range of 87 to 99 °C. Moreover, the Ki on Dopamine D2 receptor was 10 to 100 nM. As to `COc1ccccc1C[C@H]1CN(C2=Nc3ccccc3Nc3sc(C)cc32)CCN1` [Example 75], the melting point fell in the range of 95 to 109 °C. The inhibition constant (Ki) on Dopamine D2 receptor was less than 10 nM. For `COc1cccc(C[C@H]2CN(C3=Nc4ccccc4Nc4sc(C)cc43)CCN2)c1` [Example 76], the melting point lay within 96 to 109 °C. The Ki at Dopamine D2 receptor was less than 10 nM. Taken in the same sequence, the figures for `COc1ccc(C[C@H]2CN(C3=Nc4ccccc4Nc4sc(C)cc43)CCN2)cc1` [Example 77] were 85 to 98 °C and 10 to 100 nM.

The compound `Cc1cc2c(s1)Nc1ccccc1N=C2N1CCN[C@@H](Cc2cccs2)C1` [Example 80] gave a melting point of 95 to 104 °C. In addition, on Dopamine D2 receptor, the Ki was less than 10 nM. Taken in the same sequence, the figures for `Cc1cc2c(s1)Nc1ccccc1N=C2N1CCN[C@@H](Cc2ccc(Cl)cc2)C1` [Example 85] were 91 to 108 °C and less than 10 nM.

In turn, `Cc1cc2c(s1)Nc1ccccc1N=C2N1CCN(C)[C@@H](CCc2ccccc2)C1` [Example 90, 2-Methyl-10-(4-methyl-3-(S)-phenethyl-piperazin-1-yl)-4H-3-thia-4,9-diaza-benzo[f]azulene] registered a melting point of 87 to 91 °C. In addition, on Dopamine D2 receptor, the Ki lay within 10 to 100 nM. Turning to `Cc1cc2c(s1)Nc1ccccc1N=C2N1CCN(C)[C@@H](Cc2ccccc2)C1` [Example 92], the melting point is 94 to 97 °C. Moreover, the Ki on Dopamine D2 receptor was in the range of 10 to 100 nM. Consider `Cc1cccc(C[C@H]2CN(C3=Nc4ccccc4Nc4sc(C)cc43)CCN2C)c1` [Example 103], for which the melting point was in the range of 67 to 83 °C. Also, at Dopamine D2 receptor, the Ki was in the range of 10 to 100 nM.

As to `COc1ccccc1C[C@H]1CN(C2=Nc3ccccc3Nc3sc(C)cc32)CCN1C` [Example 109], the melting point was in the range of 81 to 93 °C. At Dopamine D2 receptor, the inhibition constant (Ki) was less than 10 nM. As for `Cc1cc2c(s1)Nc1ccccc1N=C2N1CCN(C)[C@@H](CCc2cccc(F)c2)C1` [Example 183, 10-((S)-3-(2-(3-Fluoro-phenyl)-ethyl)-4-methyl-piperazin-1-yl)-2-methyl-4H-3-thia-4,9-diaza-benzo[f]azulene dihydrochloride], on Dopamine D2 receptor, the Ki lay within 10 to 100 nM. Same read-out and setting: the result for `Cc1cc2c(s1)Nc1ccccc1N=C2N1CCN(C)[C@@H](CCc2ccccc2F)C1` [Example 184, 10-((S)-3-(2-(2-Fluoro-phenyl)-ethyl)-4-methyl-piperazin-1-yl)-2-methyl-4H-3-thia-4,9-diaza-benzo[f]azulene dihydrochloride] reads 10 to 100 nM. Consider `COc1ccc(CC[C@H]2CN(C3=Nc4ccccc4Nc4sc(C)cc43)CCN2C)cc1` [Example 185, 10-((S)-3-(2-(4-Methoxy-phenyl)-ethyl)-4-methyl-piperazin-1-yl)-2-methyl-4H-3-thia-4,9-diaza-benzo[f]azulene dihydrochloride], for which the inhibition constant (Ki) on Dopamine D2 receptor was 10 to 100 nM. Still for that read-out and setting: the result for `COc1cccc(CC[C@H]2CN(C3=Nc4ccccc4Nc4sc(C)cc43)CCN2C)c1` [Example 186, 10-((S)-3-(2-(3-Methoxy-phenyl)-ethyl)-4-methyl-piperazin-1-yl)-2-methyl-4H-3-thia-4.9-diaza-benzo[f]azulene dihydrochloride] reads less than 10 nM; that for `COc1ccccc1CC[C@H]1CN(C2=Nc3ccccc3Nc3sc(C)cc32)CCN1C` [Example 187, 10-((S)-3-(2-(2-Methoxy-phenyl)-ethyl)-4-methyl-piperazin-1-yl)-2-methyl-4H-3-thia-4,9-diaza-benzo[f]azulene dihydrochloride], 10 to 100 nM.

Take `Cc1cc2c(s1)Nc1ccccc1N=C2N1CCN[C@@H](CCCCc2ccccc2)C1` [Example 194]: on Dopamine D2 receptor, the Ki was less than 10 nM. Still for that read-out and setting: as for `Cc1cc2c(s1)Nc1ccccc1N=C2N1CCN(C)[C@@H](CCCCc2ccccc2)C1` [Example 195, (S)-2-Methyl-10-(3-(4-phenyl-butyl)-4-methyl-piperazin-1-yl)-4H-3-thia-4,9-diaza-benzo[f]azulene, dihydrochloric acid], the figure is 10 to 100 nM. Take `Cc1cc2c(s1)Nc1ccccc1N=C2N1CCN[C@@H](Cc2ccsc2)C1` [Example 212]: the melting point was in the range of 82 to 94 °C. Further, the Ki at Dopamine D2 receptor was less than 10 nM. For `Cc1cc2c(s1)Nc1ccccc1N=C2N1CCN(C)[C@@H](Cc2ccsc2)C1` [Example 219], the melting point is 58 to 72 °C. Further, the inhibitory constant (Ki) at Dopamine D2 receptor is 10 to 100 nM. Regarding `Cc1nc2c(s1)Nc1ccccc1N=C2N1CCN[C@@H](CCc2ccccc2)C1` [Example 460, (S)-2-Methyl-10-(3-phenethyl-piperazin-1-yl)-4H-3-thia-1,4,9-triaza-benzo[f]azulene dihydrochloride hemihydrate], on Dopamine D2 receptor, the Ki is less than 10 nM. On to `Cc1nc2c(s1)Nc1ccccc1N=C2N1CCN(C)[C@@H](CCc2ccccc2)C1` [Example 461, (S)-2-Methyl-10-(4-methyl-3-phenethyl-piperazin-1-yl)-4H-3-thia-1,4,9-triaza-benzo[f]azulene dihydrochloride hemihydrate], for which the Ki at Dopamine D2 receptor was 10 to 100 nM.

On to `CC(C)n1nc2c(n1)C(N1CCN[C@@H](CCc3ccccc3)C1)=Nc1ccccc1N2` [Example 594, (S)-2-Isopropyl-10-(3-phenethyl-piperazin-1-yl)-2,4-dihydro-1,2,3,4.9-pentaaza-benzo[f]azulene dihydrochloride hemihydrate], for which, at Dopamine D2 receptor, the inhibition constant (Ki) was less than 10 nM. The same measure, in the same setting: the result for `CC(C)n1nc2c(n1)C(N1CCN(C)[C@@H](CCc3ccccc3)C1)=Nc1ccccc1N2` [Example 595, (S)-2-Isopropyl-10-(4-methyl-3-phenethyl-piperazin-1-yl)-2,4-dihydro-1,2,3,4,9-pentaaza-benzo[f]azulene dihydrochloride hemihydrate] reads 10 to 100 nM.
